The NIST ThermoML archive (doi:10.1021/je2003012)
Numbers after ± are expanded uncertainties.

Assay: relative permittivity at various frequencies (dimensionless); wn = mass fraction of the nth substance listed
Details: Liquid, direct capacitance:P =

O=C=O [carbon dioxide] + CCO
Details | relative permittivity
303.4 K, 10000 kPa, w2 = 0.05 | 1.83 ± 0.14
303.4 K, 11400 kPa, w2 = 0.05 | 1.86 ± 0.14
303.4 K, 13200 kPa, w2 = 0.05 | 1.89 ± 0.14
303.4 K, 13600 kPa, w2 = 0.05 | 1.9 ± 0.14
303.4 K, 14800 kPa, w2 = 0.05 | 1.91 ± 0.14
303.4 K, 15300 kPa, w2 = 0.05 | 1.92 ± 0.14
303.4 K, 15800 kPa, w2 = 0.05 | 1.92 ± 0.14
303.4 K, 16000 kPa, w2 = 0.05 | 1.93 ± 0.14
303.4 K, 17500 kPa, w2 = 0.05 | 1.94 ± 0.14
303.4 K, 19000 kPa, w2 = 0.05 | 1.95 ± 0.14
303.4 K, 19200 kPa, w2 = 0.05 | 1.95 ± 0.14
303.4 K, 21000 kPa, w2 = 0.05 | 1.97 ± 0.14
303.4 K, 21300 kPa, w2 = 0.05 | 1.97 ± 0.14
303.4 K, 23000 kPa, w2 = 0.05 | 1.98 ± 0.14
303.4 K, 23300 kPa, w2 = 0.05 | 1.99 ± 0.14
303.4 K, 25100 kPa, w2 = 0.05 | 2 ± 0.14
303.4 K, 25400 kPa, w2 = 0.05 | 2 ± 0.14
303.4 K, 26700 kPa, w2 = 0.05 | 2.01 ± 0.14
303.4 K, 27200 kPa, w2 = 0.05 | 2.01 ± 0.14
303.4 K, 28900 kPa, w2 = 0.05 | 2.02 ± 0.14
303.4 K, 29600 kPa, w2 = 0.05 | 2.03 ± 0.14
303.7 K, 7200 kPa, w2 = 0.212 | 3.15 ± 0.15
303.7 K, 7900 kPa, w2 = 0.212 | 3.18 ± 0.15
303.7 K, 8800 kPa, w2 = 0.212 | 3.22 ± 0.15
303.7 K, 9800 kPa, w2 = 0.1 | 2.24 ± 0.14
303.7 K, 9800 kPa, w2 = 0.212 | 3.25 ± 0.15
303.7 K, 11000 kPa, w2 = 0.212 | 3.29 ± 0.15
303.7 K, 11300 kPa, w2 = 0.1 | 2.27 ± 0.14
303.7 K, 11400 kPa, w2 = 0.1 | 2.28 ± 0.14
303.7 K, 13000 kPa, w2 = 0.212 | 3.35 ± 0.15
303.7 K, 13100 kPa, w2 = 0.1 | 2.3 ± 0.14
303.7 K, 14000 kPa, w2 = 0.1 | 2.32 ± 0.14
303.7 K, 14900 kPa, w2 = 0.1 | 2.34 ± 0.14
303.7 K, 14900 kPa, w2 = 0.212 | 3.4 ± 0.15
303.7 K, 15000 kPa, w2 = 0.212 | 3.4 ± 0.15
303.7 K, 16000 kPa, w2 = 0.1 | 2.36 ± 0.14
303.7 K, 16500 kPa, w2 = 0.212 | 3.44 ± 0.15
303.7 K, 16700 kPa, w2 = 0.212 | 3.45 ± 0.15
303.7 K, 16900 kPa, w2 = 0.1 | 2.37 ± 0.14
303.7 K, 17300 kPa, w2 = 0.212 | 3.46 ± 0.15
303.7 K, 17800 kPa, w2 = 0.1 | 2.38 ± 0.14
303.7 K, 18000 kPa, w2 = 0.212 | 3.47 ± 0.15
303.7 K, 18800 kPa, w2 = 0.212 | 3.49 ± 0.15
303.7 K, 19100 kPa, w2 = 0.1 | 2.4 ± 0.14
303.7 K, 19900 kPa, w2 = 0.1 | 2.41 ± 0.14
303.7 K, 20200 kPa, w2 = 0.212 | 3.52 ± 0.15
303.7 K, 20400 kPa, w2 = 0.1 | 2.42 ± 0.14
303.7 K, 21400 kPa, w2 = 0.1 | 2.43 ± 0.14
303.7 K, 21600 kPa, w2 = 0.212 | 3.54 ± 0.14
303.7 K, 21800 kPa, w2 = 0.212 | 3.55 ± 0.14
303.7 K, 21900 kPa, w2 = 0.1 | 2.43 ± 0.14
303.7 K, 23100 kPa, w2 = 0.1 | 2.45 ± 0.14
303.7 K, 23300 kPa, w2 = 0.212 | 3.57 ± 0.14
303.7 K, 23900 kPa, w2 = 0.212 | 3.58 ± 0.14
303.7 K, 24100 kPa, w2 = 0.1 | 2.46 ± 0.14
303.7 K, 24200 kPa, w2 = 0.1 | 2.46 ± 0.14
303.7 K, 25300 kPa, w2 = 0.1 | 2.47 ± 0.14
303.7 K, 25400 kPa, w2 = 0.212 | 3.61 ± 0.14
303.7 K, 25500 kPa, w2 = 0.1 | 2.48 ± 0.14
303.7 K, 26200 kPa, w2 = 0.212 | 3.62 ± 0.14
303.7 K, 26500 kPa, w2 = 0.1 | 2.48 ± 0.14
303.7 K, 27200 kPa, w2 = 0.212 | 3.64 ± 0.14
303.7 K, 27400 kPa, w2 = 0.1 | 2.49 ± 0.14
303.7 K, 28000 kPa, w2 = 0.1 | 2.5 ± 0.14
303.7 K, 28400 kPa, w2 = 0.1 | 2.5 ± 0.14
303.7 K, 28400 kPa, w2 = 0.212 | 3.66 ± 0.14
303.7 K, 29400 kPa, w2 = 0.1 | 2.51 ± 0.14
303.7 K, 30200 kPa, w2 = 0.212 | 3.68 ± 0.14
304.9 K, 16100 kPa, w2 = 0.152 | 2.67 ± 0.15
304.9 K, 16800 kPa, w2 = 0.152 | 2.68 ± 0.14
304.9 K, 17300 kPa, w2 = 0.152 | 2.68 ± 0.15
304.9 K, 17800 kPa, w2 = 0.152 | 2.69 ± 0.14
304.9 K, 18800 kPa, w2 = 0.152 | 2.7 ± 0.14
304.9 K, 19400 kPa, w2 = 0.152 | 2.72 ± 0.14
304.9 K, 20100 kPa, w2 = 0.152 | 2.73 ± 0.14
304.9 K, 20800 kPa, w2 = 0.152 | 2.74 ± 0.14
304.9 K, 21900 kPa, w2 = 0.152 | 2.75 ± 0.14
304.9 K, 22800 kPa, w2 = 0.152 | 2.76 ± 0.14
304.9 K, 23700 kPa, w2 = 0.152 | 2.77 ± 0.15
304.9 K, 24300 kPa, w2 = 0.152 | 2.79 ± 0.14
304.9 K, 24700 kPa, w2 = 0.152 | 2.78 ± 0.14
304.9 K, 25500 kPa, w2 = 0.152 | 2.79 ± 0.14
304.9 K, 26400 kPa, w2 = 0.152 | 2.81 ± 0.14
304.9 K, 26500 kPa, w2 = 0.152 | 2.81 ± 0.14
304.9 K, 27200 kPa, w2 = 0.152 | 2.82 ± 0.14
304.9 K, 28200 kPa, w2 = 0.152 | 2.83 ± 0.14
304.9 K, 29100 kPa, w2 = 0.152 | 2.84 ± 0.14
